Data published in US10774110B2, “Rapadocins, inhibitors of equilibrative nucleoside transporter 1 and uses thereof” (The Johns Hopkins University, priority 2016, dated 2020).
Read-outs that look alike come from different tables or passages of the source.

Tests used:
[1] = molecular target: T1, ENT1 (Homo sapiens, UniProt P62942+Q99808); test: 3H-Thymidine uptake, potency of Rapadocin analogs (Table 2); type: cell-based; parameters: endogenous in cells
Excerpt: (§1) Rapadocin is a synthetic macrocycle composed of two ‘domains’—a FKBD (FKBP12 binding domain) and a peptide domain. […] The peptidic fragment can tolerate a range of modifications with varying effects on ENT1 inhibition.
Table 2 discloses the potency of various Rapadocin analogs.
Target sequence in this assay (Q99808 2-456 limits assumed): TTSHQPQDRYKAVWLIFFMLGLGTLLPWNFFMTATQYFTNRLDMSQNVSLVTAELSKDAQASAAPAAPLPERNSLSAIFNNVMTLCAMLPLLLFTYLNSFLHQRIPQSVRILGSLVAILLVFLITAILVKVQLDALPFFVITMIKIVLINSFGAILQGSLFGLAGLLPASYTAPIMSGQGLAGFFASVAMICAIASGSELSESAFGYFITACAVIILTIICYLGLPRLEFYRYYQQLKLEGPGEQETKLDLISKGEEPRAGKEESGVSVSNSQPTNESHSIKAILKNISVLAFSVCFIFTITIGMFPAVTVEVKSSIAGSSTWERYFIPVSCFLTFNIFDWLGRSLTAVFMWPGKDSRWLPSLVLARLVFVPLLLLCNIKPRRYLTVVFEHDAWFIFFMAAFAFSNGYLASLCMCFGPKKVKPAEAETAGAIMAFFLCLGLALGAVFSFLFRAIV
Target sequence in this assay (P62942 2-108 limits assumed): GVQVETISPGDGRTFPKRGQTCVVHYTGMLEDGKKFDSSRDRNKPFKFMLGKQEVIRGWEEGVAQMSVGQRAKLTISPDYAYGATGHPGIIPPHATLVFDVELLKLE

[2] = test system: A549; test: 3H-Thymidine uptake in A549; type: cell-based, human
Excerpt: (§2) uptake in at least seven cell lines and is predicted to inhibit nucleoside uptake in all human cell lines (see e.g., FIG. 2 and Table 1).

[3] = molecular target: T1, ENT1; test: 3H-Adenosine / nucleoside uptake by hENT1 (vs hENT2); type: cell-based
Excerpt: FIG. 1. Rapadocin inhibits ^3H-Adenosine uptake by specifically inhibiting hENT1.
Rapadocin inhibits nucleoside
Target sequence in this assay (Q99808 whole entry, the tested form may be a part): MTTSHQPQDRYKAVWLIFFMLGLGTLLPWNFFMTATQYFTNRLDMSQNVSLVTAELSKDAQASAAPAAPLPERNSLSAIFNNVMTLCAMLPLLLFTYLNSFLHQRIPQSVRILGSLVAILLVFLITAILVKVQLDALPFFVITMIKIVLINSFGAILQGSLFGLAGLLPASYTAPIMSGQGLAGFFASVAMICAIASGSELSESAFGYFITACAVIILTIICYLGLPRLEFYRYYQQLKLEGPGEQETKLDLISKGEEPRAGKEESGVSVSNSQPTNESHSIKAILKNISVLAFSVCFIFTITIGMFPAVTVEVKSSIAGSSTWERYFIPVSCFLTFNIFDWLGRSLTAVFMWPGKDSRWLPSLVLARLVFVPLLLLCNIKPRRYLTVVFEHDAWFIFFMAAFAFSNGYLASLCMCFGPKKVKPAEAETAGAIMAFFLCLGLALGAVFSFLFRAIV
Target sequence in this assay (P62942 2-108 limits assumed): as the sequence (P62942 2-108 limits assumed) above

[4] = test system: MDA MB-231; test: 3H-Thymidine uptake in MDA MB-231; type: cell-based, human
Excerpt: as §2

[5] = Stability in cell culture media; type: physicochemical; conditions: 5 days, 37° C., 10% Fetal Bovine Serum
[6] = test system: 293T; test: 3H-Thymidine uptake in 293T; type: cell-based, human
Excerpt: as §2

[7] = Solubility in aqueous solutions; type: physicochemical
[8] = test system: MCF-7; test: 3H-Thymidine uptake in MCF-7; type: cell-based, human
Excerpt: as §2

[9] = test system: HeLa; test: 3H-Thymidine uptake in HeLa; type: cell-based, human
Excerpt: as §2

[10] = molecular target: T2, FKBP12 (Homo sapiens, UniProt P62942); test: Antagonism of uptake inhibition by FKBP12-binders; type: cell-based; conditions: FIG. 3
T2 construct: endogenous in cells
T2 sequence (P62942 whole entry): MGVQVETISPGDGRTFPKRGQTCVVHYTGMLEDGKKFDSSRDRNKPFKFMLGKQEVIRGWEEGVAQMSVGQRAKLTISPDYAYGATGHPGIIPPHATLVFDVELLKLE
Excerpt: FIG. 3. Rapadocin's uptake inhibition is antagonized by FKBP12-binders Rapamycin and FK506.

[11] = test system: HUVEC; test: 3H-Thymidine uptake in HUVEC; type: cell-based, human
Excerpt: FIG. 2. Rapadocin inhibits ^3H-Thymidine uptake in Human Umbilical Vein Endothelial Cells (HUVEC).
as §2

[12] = test system: RKO; test: 3H-Thymidine uptake in RKO; type: cell-based, human
Excerpt: as §2

[13] = test system: platelet aggregation in human blood; test: Platelet aggregation in human blood activated by ADP; type: cell-based; conditions: FIG. 4
Excerpt: (§3) Two human and animal models have been studied to show the efficacy of Rapadocin (FIGS. 4 and 5). Under several physiological conditions, adenosine is released into the blood where it can act on adenosine receptors. Normally, this adenosine (ADO) is rapidly reabsorbed via ENT1. In the presence of Rapadocin, uptake is inhibited and ADO is able to produce enhanced signaling leading to several potentially beneficial physiological responses.

[14] = test system: kidney ischemia reperfusion injury; test: Kidney ischemia reperfusion injury mouse model; type: in vivo
Excerpt: as §1, §3

COc1ccc(CC[C@H]2OC(=O)[C@@H]3CCCCN3C(=O)C(=O)C(C)(C)COC(=O)C=CCCN(C)C(=O)[C@H](CC(C)C)N(C)C(=O)[C@@H]3CCCN3C(=O)[C@H](Cc3ccc(OCC(=O)NCCOCCOCCNC(=O)CCCCC4SCC5NC(=O)NC54)cc3)NC(=O)[C@H](c3ccccc3)NC(=O)CCC(=O)Nc3cccc2c3)cc1OC (some centres unmarked) [JW95TyrBiotin]
EC50 [1]: 0.064 µM

C#CCCC1(CCOc2ccc(C[C@@H]3NC(=O)[C@H](c4ccccc4)NC(=O)CCC(=O)Nc4cccc(c4)[C@@H](CCc4ccc(OC)c(OC)c4)OC(=O)C4CCCCN4C(=O)C(=O)C(C)(C)COC(=O)C=CCCN(C)C(=O)[C@H](CC(C)C)N(C)C(=O)[C@@H]4CCCN4C3=O)cc2)N=N1 (some centres unmarked) [JW95TyrDiaz]
EC50 [1]: 0.02 µM

COc1ccc(CC[C@H]2OC(=O)[C@@H]3CCCCN3C(=O)C(=O)C(C)(C)COC(=O)/C=C/CCN(C)C(=O)[C@H](CC(C)C)N(C)C(=O)[C@H]3CCCN3C(=O)[C@H](Cc3ccccc3)N(C)C(=O)[C@H](c3ccccc3)NC(=O)CCC(=O)Nc3cccc2c3)cc1OC [Rapadocin]
EC50 [2]: 6.3 nM | 3H-Adenosine uptake inhibition ([3]; FIG. 1, by specifically inhibiting hENT1): inhibits | inhibition of nucleoside uptake by hENT1 over hENT2 ([3]; selectivity hENT1 over hENT2, FIG. 1): potently and specifically inhibits | EC50 [4]: 41.1 nM | resistance to degradation [5]: resist degradation over 5 days | EC50 [6]: 5 nM | EC50 [1]: 0.00616 µM | solubility [7]: ≤ 10 µM | EC50 [8]: 9 nM | EC50 [9]: 16.3 nM | uptake inhibition in presence of FKBP12-binders Rapamycin and FK506 [10]: antagonized | EC50 [11]: 6.4 nM | 3H-Thymidine uptake inhibition ([11]; FIG. 2): inhibits | EC50 [12]: 11.4 nM | platelet aggregation [13]: inhibits platelet aggregation | tolerability in animals ([14]; kidney ischemia model): safely tolerated | protection against kidney ischemia reperfusion injury ([14]; mouse model, FIG. 5): protects against kidney ischemia reperfusion injury

c1ccc2sccc2c1 [Analog 95-15-8]
EC50 ([1]; cells printed with uM, read-out: EC50 3H-Tymidine uptake): > 1 µM
